Earlier results as cited in patent publication US20230304031A1, “VECTORS AND METHODS FOR IN VIVO TRANSDUCTION” (Abintus Bio, Inc., priority 2020, published 2023).
Where a name gives a salt, the structure may show the parent alone. Read-outs that look alike come from different tables or passages of the source.

Tests used:
[1] = test system: HSPC; settings: cited from earlier work; for HSPC mobilization (in words): as reported in the cited literature; for G-CSF-induced HSPC mobilization with NSAID: blocking of PGE2 production
[2] = test system: CD34+ cells / HSPC; settings: cited from earlier work; for CD34+ HSPC counts in the blood: 24 hours post-injection; for median yield of CD34+ cells: 5 µg/kg/day after chemotherapy, relapsed Hodgkin's disease; for increase in the harvest of CFU-GM over baseline: 5 µg/kg/day alone for 4 days
[3] = test system: VLA-4; settings: after SCF stimulation; cited from earlier work
[4] = test system: VLA-5; settings: after SCF stimulation; cited from earlier work
[5] = molecular target: phosphodiesterase type 5 (PDE5) (Homo sapiens, UniProt O76074); settings: after oral administration; cited from earlier work
[6] = test system: HSPC; settings: mice / murine models; cited from earlier work
[7] = test system: HSCs; settings: cited from earlier work
[8] = 10 breast cancer patients, 0.84 ± 0.1 µg/kg/day

Molecule: C[C@@H](NCCCc1cccc(C(F)(F)F)c1)c1cccc2ccccc12 [Cinacalcet]
- HSPC adhesion, migration and homing ([1]; pharmacological activation of CaR): increased adhesion of HSPCs to collagen I and fibronectin

Molecule: O=P1(N(CCCl)CCCl)NCCCO1 (centres unmarked) [cyclophosphamide, reference compound]
- CD34+ cell yields ([2]; doses of 4-7 g/m2): ~3.62 × 10^6 cells/kg
- increase in the number of CFU-GM ([2]; single dose of 4 g/m^2): up to 25 fold

Molecule: O=C(O)[C@H](Cc1ccc(OC(=O)N2CCCC2)cc1)NC(=O)[C@@H]1CCCN1S(=O)(=O)c1ccccc1 [BOP, N-(benzenesulfonyl)-L-prolyl-L-O-(1-pyrrolidinylcarbonyl)tyrosine]
- HSPC mobilization (in words) [1]: rapidly mobilizes long-term multi-lineage reconstituting HSPC

Molecule: SCF: Stem Cell Factor
- increase of VLA-4 expression on CD34+ HSPC [3]: approximately 2 fold
- increase of VLA-5 expression on CD34+ HSPC [4]: 4- to 10 fold

Molecule: CCOCc1cc(OC)c(-c2ccc(C[C@H](NC(=O)c3c(F)cccc3F)C(=O)O)cc2)c(OC)c1 [Firategrast]
- HSPC mobilization (in words) [1]: disrupt HSPC retention in the postnatal hematopoietic niche

Molecule: Natalizumab: humanized monoclonal anti-VLA-4 antibody [reference compound]
- increase in circulating CD34+ cells ([2]; patients receiving infusion therapy for multiple sclerosis): approximately 3 fold

Molecule: COc1ccc2c(c1)c(CC(=O)O)c(C)n2C(=O)c1ccc(Cl)cc1 [indomethacin]
- G-CSF-induced HSPC mobilization with NSAID [1]: doubled

Molecule: CCCc1nn(C)c2c(=O)[nH]c(-c3cc(S(=O)(=O)N4CCN(C)CC4)ccc3OCC)nc12 [Sildenafil citrate]
- time of peak activity [5]: 2 h

Molecule: CC(C)Cc1ccc(C(C)C(=O)O)cc1 (centres unmarked) [ibuprofen]
- G-CSF-induced HSPC mobilization with NSAID [1]: doubled

Molecule: CCCCCCCCc1ccc(CCC(N)(CO)CO)cc1 [FTY720]
- HSPC mobilization (in words) [1]: decreases steady-state mobilization of HSPCs

Molecule: vedolizumab: humanized monoclonal antibody against the α4β7 integrin
- HSPC mobilization (in words) [6]: Reduction in plasma CXCL12 levels, accompanied by reduced HSPC egress

Molecule: c1cc(CN2CCCNCCNCCCNCC2)ccc1CN1CCCNCCNCCCNCC1 [AMD3100, reference compound]
- HSPC mobilization (in words) [1]: rapidly mobilize HSPCs in various animal models
- CD34+ HSPC counts in the blood ([2]; subcutaneous 240 µg/kg): approximately 10 cells/µL
- peak CD34+ HSPC counts in the blood ([2]; subcutaneous 240 µg/kg): approximately 25 cells/µL
- time to peak CD34+ HSPC counts ([2]; subcutaneous 240 µg/kg): 8 to 10 h
- CD34+ HSPC counts in the blood ([2]; subcutaneous 480 µg/kg): approximately 20 cells/µL
- peak CD34+ HSPC counts in the blood ([2]; subcutaneous 480 µg/kg): approximately 30 cells/µL
- time to peak CD34+ HSPC counts ([2]; subcutaneous 480 µg/kg): 8 to 10 h

Molecule: CC(=O)N[C@@H](CS)C(=O)O [NAC, N-acetyl-L-cysteine]
- HSPC mobilization (in words) [1]: significantly abrogate UDP-glc-induced HSPC mobilization

Molecule: GM-CSF: granulocyte-macrophage colony stimulating factor [reference compound]
- median yield of CD34+ cells [2]: 5.6 × 10^6 CD34+ cells/kg
- increase in the harvest of CFU-GM over baseline [2]: 33.7 fold
- CFU-GM content of mobilized HSPC populations ([2]; 250 µg/m2 versus 125 µg/m2): superior yield
- increased HSPC in the peripheral blood ([2]; 4-64 µg/kg/day continuous intravenous infusion up to 7 days, cancer patients): 4- to 18 fold

Molecule: CC(=O)Oc1ccccc1C(=O)O [aspirin]
- G-CSF-induced HSPC mobilization with NSAID [1]: doubled

B1: G-CSF: hematopoietic growth factor (protein, UniProt P09919 31-207, looked up)
Granulocyte …: TPLGPASSLPQSFLLKCLEQVRKIQGDGAALQEKLVSECATYKLCHPEELVLLGHSLGIPWAPLSSCPSQALQLAGCLSQLHSGLFLYQGLLQALEGISPELGPTLDTLQLDVADFATTIWQQMEELGMAPALQPTQGAMPAFASAFQRRAGGVLVASHLQSFLEVSYRVLRHLAQP
- median yield of CD34+ cells [2]: 7.6 × 10^6 CD34+ cells/kg
- increase in the harvest of CFU-GM over baseline [2]: 35.6 fold
- increase in CD34+ content of peripheral blood over baseline ([2]; 5 µg/kg/day): sevenfold
- median harvest ([2]; 10 µg/kg/day, 34 patients with Hodgkin's disease or NHL): 2.8 × 10^6 CD34+ cells/kg
- CD34+ HSPC yield ([2]; 10 µg/kg/day): 11.32 × 10^7 /kg cells
- increase in CD34+ content of peripheral blood over baseline ([2]; 10 µg/kg/day): 28 fold
- mean total harvested ([2]; 12 µg/kg/day for 6 days, 17 patients with non-myeloid malignant disorders): 33 × 10^4 CFU-GM/kg
- CD34+ HSPC yield ([2]; 24 µg/kg/day): 48.25 × 10^7 /kg cells
- mean yield after the first leukapheresis [2, 8]: 0.77 × 10^6 CD34+ cells/kg
- mean yield after the second leukapheresis [2, 8]: 1.42 × 10^6 CD34+ cells/kg
- increase in HSPC over baseline ([2]; G-CSF 5 µg/kg/day for a further 5 days after 7 days of GM-CSF 5 µg/kg/day): 80 fold
- mobilized PBPC cells expressing CD38 ([2]; by mobilization regimen): 88%
- mean harvest yield ([2]; healthy subjects, G-CSF 5 plus GM-CSF 5 µg/kg/day versus G-CSF 10 µg/kg/day alone): 119 × 10^6 CD34+ cells/kg
- numbers of HSCs in the bloodstream ([7]; 1 day after 4 consecutive days of injections): 3,400 HSCs/mouse
- HSC mobilization (comparison in words) ([7]; regimens as worded): not significantly better than the 2-h Viagra + AMD3100 mobilization protocol
